ChEMBL document CHEMBL1152890, “Synthesis and evaluation of a novel series of heterocyclic oleanolic acid derivatives with anti-osteoclast formation activity” (Eur J Med Chem, 2009)

Legend:
Assay type in all cases: functional
[1] = Antiosteoclast activity in ICR mouse osteoblast like cells co-cultured with bone marrow cells assessed as recovery of 1-alpha,25(OH)2D3-induced TRAP-positive osteoclast like multinucleated cell formation at 20 uM after 6 days drug removal after 2 days relative to control
[2] = Antiosteoclast activity in ICR mouse osteoblast like cells co-cultured with bone marrow cells assessed as effect on 1-alpha,25(OH)2D3-induced TRAP-positive osteoclast like multinucleated cell formation at 2 uM after 6 days medium replaced every 2 days relative to control
[3] = Antiosteoclast activity in ICR mouse osteoblast like cells co-cultured with bone marrow cells assessed as effect on 1-alpha,25(OH)2D3-induced TRAP-positive osteoclast like multinucleated cell formation at 20 uM after 6 days medium replaced every 2 days relative to control

SMILES	Activity [1] [%]	Activity [2] [%]	Activity [3] [%]
CC1(C)CC[C@]2(C(=O)O)CC[C@]3(C)C(=CC[C@@H]4[C@@]5(C)Cc6c([nH]c7ccc(C(=O)O)cc67)C(C)(C)[C@@H]5CC[C@]43C)[C@@H]2C1	97.8	77.2	0
CC[C@H](C)[C@H](NC(=O)[C@]12CCC(C)(C)C[C@H]1C1=CC[C@@H]3[C@@]4(C)Cc5nc6ccccc6nc5C(C)(C)[C@@H]4CC[C@@]3(C)[C@]1(C)CC2)C(=O)OC	–	–	78.5
CC1(C)CC[C@]2(C(=O)O)CC[C@]3(C)C(=CC[C@@H]4[C@@]5(C)Cc6nc7cc([N+](=O)[O-])ccc7nc6C(C)(C)[C@@H]5CC[C@]43C)[C@@H]2C1	–	88.7	24.1
CC[C@H](C)[C@H](NC(=O)[C@]12CCC(C)(C)C[C@H]1C1=CC[C@@H]3[C@@]4(C)CCC(=O)C(C)(C)[C@@H]4CC[C@@]3(C)[C@]1(C)CC2)C(=O)O	–	–	100.3
COC(=O)[C@H](Cc1ccccc1)NC(=O)[C@]12CCC(C)(C)C[C@H]1C1=CC[C@@H]3[C@@]4(C)Cc5c([nH]c6ccccc56)C(C)(C)[C@@H]4CC[C@@]3(C)[C@]1(C)CC2	79.8	69.2	0
CC(C)[C@H](NC(=O)[C@]12CCC(C)(C)C[C@H]1C1=CC[C@@H]3[C@@]4(C)Cc5nccnc5C(C)(C)[C@@H]4CC[C@@]3(C)[C@]1(C)CC2)C(=O)O	–	–	83.5
COC(=O)[C@H](C)NC(=O)[C@]12CCC(C)(C)C[C@H]1C1=CC[C@@H]3[C@@]4(C)Cc5c([nH]c6ccccc56)C(C)(C)[C@@H]4CC[C@@]3(C)[C@]1(C)CC2	81.5	99.4	0
CC1(C)CC[C@]2(C(=O)NCC(=O)O)CC[C@]3(C)C(=CC[C@@H]4[C@@]5(C)CCC(=O)C(C)(C)[C@@H]5CC[C@]43C)[C@@H]2C1	–	–	103
COC(=O)[C@@H](NC(=O)[C@]12CCC(C)(C)C[C@H]1C1=CC[C@@H]3[C@@]4(C)Cc5c([nH]c6ccccc56)C(C)(C)[C@@H]4CC[C@@]3(C)[C@]1(C)CC2)C(C)C	–	–	99
CC[C@H](C)[C@H](NC(=O)[C@]12CCC(C)(C)C[C@H]1C1=CC[C@@H]3[C@@]4(C)Cc5c([nH]c6ccc(Cl)cc56)C(C)(C)[C@@H]4CC[C@@]3(C)[C@]1(C)CC2)C(=O)OC	–	–	82.4
COC(=O)CNC(=O)[C@]12CCC(C)(C)C[C@H]1C1=CC[C@@H]3[C@@]4(C)Cc5nccnc5C(C)(C)[C@@H]4CC[C@@]3(C)[C@]1(C)CC2	–	93.5	41.1
CC[C@H](C)[C@H](NC(=O)[C@]12CCC(C)(C)C[C@H]1C1=CC[C@@H]3[C@@]4(C)Cc5c([nH]c6ccc(Cl)cc56)C(C)(C)[C@@H]4CC[C@@]3(C)[C@]1(C)CC2)C(=O)O	0	86.9	0
COC(=O)[C@@H](NC(=O)[C@]12CCC(C)(C)C[C@H]1C1=CC[C@@H]3[C@@]4(C)Cc5c([nH]c6ccc(Cl)cc56)C(C)(C)[C@@H]4CC[C@@]3(C)[C@]1(C)CC2)C(C)C	–	90.8	21.1
C[C@H](NC(=O)[C@]12CCC(C)(C)C[C@H]1C1=CC[C@@H]3[C@@]4(C)Cc5nccnc5C(C)(C)[C@@H]4CC[C@@]3(C)[C@]1(C)CC2)C(=O)O	–	–	76.5
COC(=O)[C@H](CC(C)C)NC(=O)[C@]12CCC(C)(C)C[C@H]1C1=CC[C@@H]3[C@@]4(C)Cc5c([nH]c6ccc(Cl)cc56)C(C)(C)[C@@H]4CC[C@@]3(C)[C@]1(C)CC2	–	–	86
CC1(C)CC[C@]2(C(=O)N[C@@H](Cc3ccccc3)C(=O)O)CC[C@]3(C)C(=CC[C@@H]4[C@@]5(C)Cc6c([nH]c7ccccc67)C(C)(C)[C@@H]5CC[C@]43C)[C@@H]2C1	–	–	58
COC(=O)CNC(=O)[C@]12CCC(C)(C)C[C@H]1C1=CC[C@@H]3[C@@]4(C)Cc5c([nH]c6ccc(Cl)cc56)C(C)(C)[C@@H]4CC[C@@]3(C)[C@]1(C)CC2	–	66.6	0
CC(C)[C@H](NC(=O)[C@]12CCC(C)(C)C[C@H]1C1=CC[C@@H]3[C@@]4(C)Cc5c([nH]c6ccccc56)C(C)(C)[C@@H]4CC[C@@]3(C)[C@]1(C)CC2)C(=O)O	–	70.8	6.1
CC1(C)CC[C@]2(C(=O)O)CC[C@]3(C)C(=CC[C@@H]4[C@@]5(C)Cc6c([nH]c7ccccc67)C(C)(C)[C@@H]5CC[C@]43C)[C@@H]2C1	–	94.6	51.1
CC1(C)CC[C@]2(C(=O)NCC(=O)O)CC[C@]3(C)C(=CC[C@@H]4[C@@]5(C)Cc6nccnc6C(C)(C)[C@@H]5CC[C@]43C)[C@@H]2C1	–	–	85.1
CC1(C)CC[C@]2(C(=O)N[C@@H](Cc3ccccc3)C(=O)O)CC[C@]3(C)C(=CC[C@@H]4[C@@]5(C)Cc6nc7ccccc7nc6C(C)(C)[C@@H]5CC[C@]43C)[C@@H]2C1	–	–	75.4

SMILES	Activity [1] [%]	Activity [2] [%]	Activity [3] [%]
COC(=O)[C@H](C)NC(=O)[C@]12CCC(C)(C)C[C@H]1C1=CC[C@@H]3[C@@]4(C)Cc5c([nH]c6ccc(Cl)cc56)C(C)(C)[C@@H]4CC[C@@]3(C)[C@]1(C)CC2	–	79.9	10.1
CC(C)C[C@H](NC(=O)[C@]12CCC(C)(C)C[C@H]1C1=CC[C@@H]3[C@@]4(C)CCC(=O)C(C)(C)[C@@H]4CC[C@@]3(C)[C@]1(C)CC2)C(=O)O	–	–	100.6
CC1(C)CC[C@]2(C(=O)NCC(=O)O)CC[C@]3(C)C(=CC[C@@H]4[C@@]5(C)Cc6nc7ccccc7nc6C(C)(C)[C@@H]5CC[C@]43C)[C@@H]2C1	–	–	91.9
CC1(C)CC[C@]2(C(=O)N[C@@H](Cc3ccccc3)C(=O)O)CC[C@]3(C)C(=CC[C@@H]4[C@@]5(C)Cc6c([nH]c7ccc(Cl)cc67)C(C)(C)[C@@H]5CC[C@]43C)[C@@H]2C1	0	77.8	0
C[C@H](NC(=O)[C@]12CCC(C)(C)C[C@H]1C1=CC[C@@H]3[C@@]4(C)CCC(=O)C(C)(C)[C@@H]4CC[C@@]3(C)[C@]1(C)CC2)C(=O)O	–	–	100
CC1(C)CC[C@]2(C(=O)O)CC[C@]3(C)C(=CC[C@@H]4[C@@]5(C)CCC(=O)C(C)(C)[C@@H]5CC[C@]43C)[C@@H]2C1 [OLEANONIC ACID]	–	79.2	1.4
CC1(C)CC[C@]2(C(=O)O)CC[C@]3(C)C(=CC[C@@H]4[C@@]5(C)Cc6nc7ccccc7nc6C(C)(C)[C@@H]5CC[C@]43C)[C@@H]2C1	92.6	72.7	0
CC[C@H](C)[C@H](NC(=O)[C@]12CCC(C)(C)C[C@H]1C1=CC[C@@H]3[C@@]4(C)CCC(=O)C(C)(C)[C@@H]4CC[C@@]3(C)[C@]1(C)CC2)C(=O)OC	–	94	1.4
COC(=O)[C@H](CC(C)C)NC(=O)[C@]12CCC(C)(C)C[C@H]1C1=CC[C@@H]3[C@@]4(C)CCC(=O)C(C)(C)[C@@H]4CC[C@@]3(C)[C@]1(C)CC2	100.2	–	92.9
COC(=O)[C@H](C)NC(=O)[C@]12CCC(C)(C)C[C@H]1C1=CC[C@@H]3[C@@]4(C)CCC(=O)C(C)(C)[C@@H]4CC[C@@]3(C)[C@]1(C)CC2	–	68.7	29.3
C[C@H](NC(=O)[C@]12CCC(C)(C)C[C@H]1C1=CC[C@@H]3[C@@]4(C)Cc5c([nH]c6ccccc56)C(C)(C)[C@@H]4CC[C@@]3(C)[C@]1(C)CC2)C(=O)O	–	90.2	21
CC[C@H](C)[C@H](NC(=O)[C@]12CCC(C)(C)C[C@H]1C1=CC[C@@H]3[C@@]4(C)Cc5c([nH]c6ccccc56)C(C)(C)[C@@H]4CC[C@@]3(C)[C@]1(C)CC2)C(=O)O	–	–	84.4
C[C@H](NC(=O)[C@]12CCC(C)(C)C[C@H]1C1=CC[C@@H]3[C@@]4(C)Cc5nc6ccccc6nc5C(C)(C)[C@@H]4CC[C@@]3(C)[C@]1(C)CC2)C(=O)O	–	–	96.5
CC1(C)CC[C@]2(C(=O)N[C@@H](Cc3ccccc3)C(=O)O)CC[C@]3(C)C(=CC[C@@H]4[C@@]5(C)CCC(=O)C(C)(C)[C@@H]5CC[C@]43C)[C@@H]2C1	–	–	80.7
CC[C@H](C)[C@H](NC(=O)[C@]12CCC(C)(C)C[C@H]1C1=CC[C@@H]3[C@@]4(C)Cc5c([nH]c6ccccc56)C(C)(C)[C@@H]4CC[C@@]3(C)[C@]1(C)CC2)C(=O)OC	–	–	98.4
CC1(C)CC[C@]2(C(=O)NCC(=O)O)CC[C@]3(C)C(=CC[C@@H]4[C@@]5(C)Cc6c([nH]c7ccccc67)C(C)(C)[C@@H]5CC[C@]43C)[C@@H]2C1	–	95.2	9
CC1(C)CC[C@]2(C(=O)N[C@@H](Cc3ccccc3)C(=O)O)CC[C@]3(C)C(=CC[C@@H]4[C@@]5(C)Cc6nccnc6C(C)(C)[C@@H]5CC[C@]43C)[C@@H]2C1	–	–	89.4
CC(C)[C@H](NC(=O)[C@]12CCC(C)(C)C[C@H]1C1=CC[C@@H]3[C@@]4(C)CCC(=O)C(C)(C)[C@@H]4CC[C@@]3(C)[C@]1(C)CC2)C(=O)O	–	–	99.8
COC(=O)[C@H](Cc1ccccc1)NC(=O)[C@]12CCC(C)(C)C[C@H]1C1=CC[C@@H]3[C@@]4(C)CCC(=O)C(C)(C)[C@@H]4CC[C@@]3(C)[C@]1(C)CC2	99.1	–	82.3
COC(=O)[C@@H](NC(=O)[C@]12CCC(C)(C)C[C@H]1C1=CC[C@@H]3[C@@]4(C)CCC(=O)C(C)(C)[C@@H]4CC[C@@]3(C)[C@]1(C)CC2)C(C)C	–	–	100.6
COC(=O)[C@H](CC(C)C)NC(=O)[C@]12CCC(C)(C)C[C@H]1C1=CC[C@@H]3[C@@]4(C)Cc5c([nH]c6ccccc56)C(C)(C)[C@@H]4CC[C@@]3(C)[C@]1(C)CC2	–	–	96.8
